Experimental data: PubChem BioAssay AID330 (DTP/NCI, 2004)
Several values for one entry are separate records, joined by “and”; a condition that tells them apart may be missing. Identical values can stand only once. Toxic doses and inconclusive results are not listed. Rule for the calls: active = survival T/C of 150% or more; inactive = T/C below 125% in these data.

System: P388 leukemia ip, CD2F1 mice, survival T/C
Assay: NCI In Vivo Anticancer Drug Screen. Data for tumor model P388 Leukemia (intraperitoneal) in CD2F1 (CDF1) mice
Conditions: endpoint: median survival time, higher = longer survival
Summary of the method: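 Mice carrying the transplanted tumor received test compound or vehicle. Survival was recorded in each group, and the value is the treated-group measurement divided by that of the vehicle-treated control group.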

[1] = dose: 100.0 mg/kg/injection, schedule: Q04DX003 (ip), vehicle: saline
[2] = dose: 200.0 mg/kg/injection, schedule: Q04DX003 (ip), vehicle: saline
[3] = dose: 60.0 mg/kg/injection, schedule: Q01DX005 (ip), vehicle: saline with Tween-80
[4] = dose: 120.0 mg/kg/injection, schedule: Q01DX005 (ip), vehicle: saline with Tween-80
[5] = dose: 240.0 mg/kg/injection, schedule: Q01DX005 (ip), vehicle: saline with Tween-80
[6] = dose: 50.0 mg/kg/injection, schedule: Q01DX009 (ip), vehicle: saline
[7] = dose: 100.0 mg/kg/injection, schedule: Q01DX009 (ip), vehicle: saline
[8] = dose: 200.0 mg/kg/injection, schedule: Q01DX009 (ip), vehicle: saline
[9] = dose: 12.5 mg/kg/injection, schedule: Q01DX009 (ip), vehicle: saline with Tween-80
[10] = dose: 25.0 mg/kg/injection, schedule: Q01DX009 (ip), vehicle: saline with Tween-80
[11] = dose: 60.0 mg/kg/injection, schedule: Q01DX005 (ip), vehicle: Klucel (hydroxypropylcellulose) (HPC)
[12] = dose: 120.0 mg/kg/injection, schedule: Q01DX005 (ip), vehicle: Klucel (hydroxypropylcellulose) (HPC)
[13] = dose: 50.0 mg/kg/injection, schedule: Q01DX005 (ip), vehicle: saline with Tween-80
[14] = dose: 60.0 mg/kg/injection, schedule: Q01DX005 (ip), vehicle: saline
[15] = dose: 120.0 mg/kg/injection, schedule: Q01DX005 (ip), vehicle: saline
[16] = dose: 240.0 mg/kg/injection, schedule: Q01DX005 (ip), vehicle: saline
[17] = dose: 100.0 mg/kg/injection, schedule: Q01DX005 (ip), vehicle: saline with Tween-80
[18] = dose: 200.0 mg/kg/injection, schedule: Q01DX005 (ip), vehicle: saline with Tween-80
[19] = dose: 50.0 mg/kg/injection, schedule: Q01DX005 (ip), vehicle: saline
[20] = dose: 100.0 mg/kg/injection, schedule: Q01DX005 (ip), vehicle: saline
[21] = dose: 200.0 mg/kg/injection, schedule: Q01DX005 (ip), vehicle: saline

Measured: T/C

O=[N+]([O-])c1ccc([Se]c2ncccn2)c([N+](=O)[O-])c1
inactive: dose: 25.0 mg/kg/injection, schedule: Q04DX003 (ip), vehicle: saline 104 % of control | dose: 50.0 mg/kg/injection, schedule: Q04DX003 (ip), vehicle: saline 104 % of control | [1] 100 % of control and 117 % of control | [2] 100 % of control

CCC12Nc3ccc([N+](=O)[O-])cc3C(CC)(C1=O)C(c1ccccc1)=C2c1ccccc1 (stereo not drawn)
inactive: dose: 50.0 mg/kg/injection, schedule: Q01DX009 (ip), vehicle: Klucel (hydroxypropylcellulose) (HPC) 113 % of control | dose: 100.0 mg/kg/injection, schedule: Q01DX009 (ip), vehicle: Klucel (hydroxypropylcellulose) (HPC) 110 % of control | dose: 200.0 mg/kg/injection, schedule: Q01DX009 (ip), vehicle: Klucel (hydroxypropylcellulose) (HPC) 112 % of control

Cc1ccc(/C=N/NC(=O)CNC(=O)c2ccccc2)cc1
inactive: [3] 97 % of control | [4] 92 % of control | [5] 97 % of control

CC(=N\O)/C(C)=N/Nc1ccccc1Cl
inactive: [6] 98 % of control | [7] 104 % of control | [8] 89 % of control

Cc1cc(C2=NCC(C)S2)ccc1OCCSCCOc1ccc(C2=NCC(C)S2)cc1C (stereo not drawn)
inactive: [9] 92 % of control | [10] 92 % of control

N[C@H](CCOc1ccc(/C(=N/O)C(=O)N[C@H]2CN([C@@H](C(=O)O)c3ccc(O)cc3)C2=O)cc1)C(=O)O
inactive: dose: 50.0 mg/kg/injection, schedule: Q01DX005 (ip), vehicle: water 101 % of control | dose: 100.0 mg/kg/injection, schedule: Q01DX005 (ip), vehicle: water 97 % of control | dose: 200.0 mg/kg/injection, schedule: Q01DX005 (ip), vehicle: water 105 % of control

c1ccc2c(SCCNCCSc3c4ccccc4nc4ccccc34)c3ccccc3nc2c1
inactive: [11] 106 % of control | [12] 105 % of control | dose: 240.0 mg/kg/injection, schedule: Q01DX005 (ip), vehicle: Klucel (hydroxypropylcellulose) (HPC) 106 % of control

OC[P+](CO)(CO)CO
inactive: dose: 6.25 mg/kg/injection, schedule: Q01DX005 (ip), vehicle: saline with Tween-80 117 % of control and 96 % of control | dose: 12.5 mg/kg/injection, schedule: Q01DX005 (ip), vehicle: saline with Tween-80 114 % of control and 96 % of control | dose: 25.0 mg/kg/injection, schedule: Q01DX005 (ip), vehicle: saline with Tween-80 95 % of control | [13] 104 % of control and 122 % of control

Nc1ccc(-c2ccc(C(=O)O)cc2)cc1
inactive: [3] 104 % of control | [4] 106 % of control | [5] 109 % of control

CN(C)CC(CN(C)C)C(O)c1ccccc1 (stereo not drawn)
inactive: [14] 109 % of control | [15] 100 % of control | [16] 109 % of control

COC(=O)C1=C/C=C\CN(CCC2OCC(CBr)O2)/C=C\1C(=O)OC (stereo not drawn)
inactive: dose: 100.0 mg/kg/injection, schedule: Q01DX001 (ip), vehicle: alcohol 95 % of control | dose: 200.0 mg/kg/injection, schedule: Q01DX001 (ip), vehicle: alcohol 100 % of control | dose: 400.0 mg/kg/injection, schedule: Q01DX001 (ip), vehicle: alcohol 100 % of control

CC(C)C(NC(=O)OCc1ccccc1)C(=O)NC(Cc1c[nH]c2ccccc12)C(=O)O (stereo not drawn)
inactive: [13] 99 % of control | [17] 99 % of control | [18] 95 % of control

Cc1ccc(S(=O)(=O)N/N=C/c2cc(I)cc(I)c2O)cc1
inactive: [13] 98 % of control | [17] 100 % of control | [18] 100 % of control

COc1ccc(C(=O)Cc2cc3c(cc2Br)OCO3)cc1OC
inactive: dose: 100.0 mg/kg/injection, schedule: Q01DX001 (ip), vehicle: Klucel (hydroxypropylcellulose) (HPC) 101 % of control | dose: 200.0 mg/kg/injection, schedule: Q01DX001 (ip), vehicle: Klucel (hydroxypropylcellulose) (HPC) 105 % of control | dose: 400.0 mg/kg/injection, schedule: Q01DX001 (ip), vehicle: Klucel (hydroxypropylcellulose) (HPC) 99 % of control

COc1cc(O)c(C(C)=O)c(O)c1
inactive: dose: 6.25 mg/kg/injection, schedule: Q01DX009 (ip), vehicle: saline with Tween-80 102 % of control | [9] 93 % of control | [10] 102 % of control | dose: 50.0 mg/kg/injection, schedule: Q01DX009 (ip), vehicle: saline with Tween-80 100 % of control

COCCOCCOCCOCCOCCOCCOCCOCCOCCOCCOCCOCCOCCOCCOC(=O)CCn1cc(F)c(=O)[nH]c1=O
inactive: dose: 34.0 mg/kg/injection, schedule: Q04DX002 (ip), vehicle: saline 97 % of control | dose: 68.0 mg/kg/injection, schedule: Q04DX002 (ip), vehicle: saline 111 % of control | dose: 136.0 mg/kg/injection, schedule: Q04DX002 (ip), vehicle: saline 102 % of control | dose: 272.0 mg/kg/injection, schedule: Q04DX002 (ip), vehicle: saline 100 % of control

Cc1ncc(COP(=O)(O)O)c(C2NC(C(=O)O)CS2)c1O (stereo not drawn)
inactive: [19] 115 % of control | [14] 92 % of control | [20] 107 % of control | [15] 94 % of control | [21] 113 % of control | [16] 91 % of control

NCCCCC1(CCCCN)OCCO1
inactive: dose: 12.5 mg/kg/injection, schedule: Q01DX009 (ip), vehicle: saline 95 % of control | dose: 25.0 mg/kg/injection, schedule: Q01DX009 (ip), vehicle: saline 95 % of control | [6] 100 % of control

CC(C)CC(NC(c1ccccc1)(c1ccccc1)c1ccccc1)C(=O)O (stereo not drawn)
inactive: [11] 103 % of control | [12] 106 % of control

COc1ccc(-c2cn(-c3ccc(OC)cc3)c3ncnc(N)c23)cc1
inactive: [3] 102 % of control | [4] 100 % of control | [5] 96 % of control

CCCCCCCC/C=C\CCCCCCCC(=O)OCCCCCCCCCCCCCC
inactive: dose: 12.5 mg/kg/injection, schedule: Q01DX001 (ip), vehicle: other 100 % of control | dose: 25.0 mg/kg/injection, schedule: Q01DX001 (ip), vehicle: other 90 % of control | dose: 50.0 mg/kg/injection, schedule: Q01DX001 (ip), vehicle: other 100 % of control

CN1CCC/C1=C/C(=O)c1ccccc1
inactive: [1] 100 % of control | [2] 111 % of control

CCCCCCCCCCCCCCCC[N+]1(CC)CCCC1
inactive: dose: 0.09 mg/kg/injection, schedule: Q01DX009 (ip), vehicle: saline 100 % of control | dose: 0.19 mg/kg/injection, schedule: Q01DX009 (ip), vehicle: saline 98 % of control | dose: 0.39 mg/kg/injection, schedule: Q01DX009 (ip), vehicle: saline 112 % of control and 93 % of control

N#CC1C(=O)NC(=S)NC1c1ccc2c(c1)CCC2 (stereo not drawn)
inactive: [6] 100 % of control | [7] 95 % of control | [8] 94 % of control

CC1C(c2ccccc2)OCN1C (stereo not drawn)
inactive: dose: 12.5 mg/kg/injection, schedule: Q01DX005 (ip), vehicle: saline 110 % of control and 88 % of control | dose: 25.0 mg/kg/injection, schedule: Q01DX005 (ip), vehicle: saline 100 % of control and 116 % of control | [19] 110 % of control [middle of 5 runs] | [20] 118 % of control and 109 % of control | [21] 116 % of control

O=C(C[N+](=O)[O-])OCc1ccccc1
inactive: dose: 12.5 mg/kg/injection, schedule: Q01DX009 (ip), vehicle: other 101 % of control | dose: 25.0 mg/kg/injection, schedule: Q01DX009 (ip), vehicle: other 106 % of control | dose: 50.0 mg/kg/injection, schedule: Q01DX009 (ip), vehicle: other 113 % of control | dose: 100.0 mg/kg/injection, schedule: Q01DX009 (ip), vehicle: other 103 % of control

CCOC(=O)c1cnc(NCCCCCCNc2ncc(C(=O)OCC)c(=O)[nH]2)[nH]c1=O
inactive: dose: 50.0 mg/kg/injection, schedule: Q01DX005 (ip), vehicle: Klucel (hydroxypropylcellulose) (HPC) 97 % of control | dose: 100.0 mg/kg/injection, schedule: Q01DX005 (ip), vehicle: Klucel (hydroxypropylcellulose) (HPC) 91 % of control

CCSc1n[nH]c(C2CCC(=O)N2Cc2ccccc2)n1 (stereo not drawn)
inactive: [13] 103 % of control | [17] 104 % of control | [18] 102 % of control

CCOC(=O)C1=C(/C=C/c2cccc(Cl)c2)O/C(=C/c2cccc(Cl)c2)C1=O
inactive: [13] 87 % of control | [17] 96 % of control | [18] 106 % of control
